Source: patent US20200354331A1, “ICARIIN DERIVATIVES” (H. LEE MOFFITT CANCER CENTER AND RESEARCH INSTITUTE, INC., priority 2014, published 2020)
“Also recorded” adds a separate entry of the source. Like-named read-outs stand apart in the source and are kept apart here.

Key:
PP2A bound to PDE5 = biological target: T1, PP2A bound to PDE5 (Homo sapiens, UniProt O76074); assay: Co-immunoprecipitation of PDE5 with PP2A in PBMC; assay type: cell-based; conditions: 48 hours
T1 construct: Cells were then lysed and PDE5 was immunoprecipitated following a Western Blot with anti-PP2A; endogenous in cells; host or cells: human PBMC
Description: Human PBMC were cultured for 48 hours with media, DMSO or increasing doses of ICT (1, 5, 10, 20 μM respectively). Cells were then lysed and PDE5 was immunoprecipitated following a Western Blot with anti-PP2A. Coomasie blue staining of the membrane is shown as loading control.
(§1) To understand if there is a link correlating S100A9/SIGLEC3 and PDE5 activation, SJCRH30 cells were transfected with either vector, S100A9 or SIGLEC 3. Seventy two hours post-transfection cells were lysed and assessed by Western Blot for either PDE5 or its phosphorylated counterpart.

PBMC = assay: IC50 / toxicity in cells; assay type: cell-based
Bone marrow = assay: IC50 / toxicity in cells; assay type: cell-based; conditions: Mus musculus
Description: (§2) Specifically, BMNCs from three healthy donors were treated with different concentrations of ICA or ICT for 48 hours after which colony formation was assessed using MethoCult H4434 complete medium with cytokines. The mixture was placed in 35-mm culture dishes (1×10^5 cells/each dish) and incubated at 37° C. in 5% CO2 for approximately 7-14 days. After incubation, colonies of CFU-E, BFU-E and CFU-GM were indentified and counted using an inverted light microscope. […] Although, these cells were obtained from spleens, it was also found ICA/ICT has a similar effect on MDSCs isolated from tumor tissue. Here, Gr1^+ cells were isolated from tumors of 4T1 tumor-bearing mice. MDSCs were treated with 20 μM of ICA, ICT, or DMSO for 48 h. Bars represent the relative percentage of MDSC as compared to DMSO treated cells measured by flow cytometry (FIG. 3A). The production of ROS (FIG. 3B) and NO (FIG. 3C) activity of purified MDSC from tumor tissue was also measured.

PP2A = biological target: T2, PP2A (Homo sapiens, UniProt P67775); assay: PP2A activity in PBMC lysates, in vitro phosphatase assay kit; assay type: cell-based; conditions: 48 hours, 1 μM
T2 construct: endogenous in cells; host or cells: human PBMC
T2 sequence (P67775 whole entry): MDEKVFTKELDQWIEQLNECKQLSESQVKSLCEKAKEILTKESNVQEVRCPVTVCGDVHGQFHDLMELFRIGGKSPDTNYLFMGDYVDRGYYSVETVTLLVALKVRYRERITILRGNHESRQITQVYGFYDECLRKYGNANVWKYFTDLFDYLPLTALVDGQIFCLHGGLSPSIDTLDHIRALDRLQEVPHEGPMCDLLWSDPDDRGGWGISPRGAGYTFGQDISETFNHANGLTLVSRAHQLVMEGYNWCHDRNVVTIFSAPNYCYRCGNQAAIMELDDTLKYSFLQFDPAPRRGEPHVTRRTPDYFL
Description: FIG. 9 depicts the effect of ICA and ICT on the activity of PP2A. Human PBMC were cultured for 48 hours with media, DMSO, 1 μM of ICA or ICT. The cell lysates were used to analyze PP2A activity using a commercial in vitro phosphatase assay kit (Millipore). Error bars represent the SEM of three separate experiments.
as §1, with “counterpart. […] This represents a new pathway of MDSC activation that can be specifically targeted by ICA, ICT, and their derivatives disclosed herein.” for “counterpart.”

4T1 tumors = assay: 4T1 tumor growth in vivo; design: species or system BALB/c mice; conditions: 100 mg/kg i.p. three times weekly
Description: One of the most striking features of ICA and ICT is their anti-tumorigenic ability in vivo. Seven days post-infection 1 cm diameter 4T1 tumors from 5 mice were established in BALB/c mice. Mice were treated with 100 mg/kg of ICA, ICT or vehicle (i.p.) three times weekly and tumor size (mean and SD) was monitored every 2 to 3 days. The percentages of double-positive Gr-1+CD11b′ MDSCs were determined for spleens of five mice per group. Cell phenotype was evaluated by flow cytometry. […] ICA or ICT on the differentiation of MDSC.

MDS BMNCs = assay: Colony formation (CFU-GM, BFU-E) in MethoCult H4434; assay type: cell-based; conditions: 20 uM for 48 h, 14 days culture
Description: Bone marrow mononuclear cells (BMCs) from MDS patients were treated with 20 uM ICT for 48 h, and then seeded into MethoCult H4434 complete medium, the mixture is placed in 35-mm culture dishes (1×10^5 cells/each dish) and incubated at 37° C. in 5% CO2 for 14 days. After incubation, colonies of CFU-GM and BFU-E were identified and counted using an inverted light microscope, as shown in FIGS. 21A and 21B respectively. Each point represents the mean results of […], and each experimental point represents duplicate plates. Results are expressed as mean value±SD.

SIGLEC3 = assay: SIGLEC3/CD33 expression on PBMC (Q-PCR, flow cytometry); assay type: cell-based, human; conditions: healthy PBMC, 48 hours; for SIGLEC3 mRNA and protein expression: 1 μM (Q-PCR)
Description: FIG. 4 depicts the down-regulation of the RNA expression of SIGLEC3 on PBMCs due to ICA and ICT. Healthy PBMC were cultured for 48 hours with 1 μM of DMSO, ICA or ICT and the expression of SIGLEC3 was measured by Q-PCR and analyzed by the AACt method. Error bars indicate SEM.
FIG. 5 depicts the effect of ICT on the expression of SIGLEC3 and SIGLEC5 on PBMC. PBMC from healthy donors were treated for 48 hours with DMSO or ICT and stained extra-cellularly with SIGLEC3-PE and SIGLEC5/14-APC antibodies (BD biosciences).
SIGLEC3 is highly expressed in MDSCs isolated from patients with AML (FIG. 6a). […] Specifically, healthy PBMC were cultured for 48 hours with 1 μM of DMSO, ICA or ICT and the expression of SIGLEC3 was measured by Q-PCR and analyzed by the MCt method. Also, PBMC from healthy donors were treated for 48 hours with DMSO or ICT and stained extra-cellularly with SIGLEC3-PE and SIGLEC5/14-APC antibodies (BD biosciences). S100A9 can ligate with SIGLEC3, denoting the presence of an uncharacterized pathway that could be linked to the identification of specific strategies targeting the regulation of MDSC activation.
Healthy PBMC were cultured for 48 hours with […] of the PDE5 inhibitor ICT and the expression of SIGLEC3 measured by the DDCt method. The experimental control is PBMC treated with DMSO and the internal control was GAPDH. Error bars indicate the SEM of three separate donors/experiments.

[1] = biological target: GMP-specific recombinant bovine phosphodiesterase Type V (Bos taurus, UniProt Q28156); assay: PDE5 phosphodiesterase inhibition, PDE-Glo system; assay type: biochemical
[2] = system: BMNCs from three healthy donors; assay: Colony formation (CFU-E, BFU-E, CFU-GM) in MethoCult H4434; assay type: cell-based; conditions: healthy donor BMNCs treated 48 hours, different concentrations
Description: FIG. 2 depicts the effect, or lack thereof, of ICA and ICT on hematopoiesis. BMNCs from three healthy donors were treated with ICA or ICT for 48 hours after which colony formation was assessed using MethoCult H4434 complete medium with cytokines. CFU-E, BFU-E and CFU-GM were indentified and counted using an inverted light microscope. Each bar represents the mean results of three individuals with duplicate plates. Results are expressed as means±SD.
as §2, with “MDSCs were treated with 20 μM of ICA, ICT, or DMSO for 48 h.” left out

SMILES | association of PP2A with PDE5 (PP2A bound to PDE5) | IC50 (PBMC) | IC50 (Bone marrow; BMMC) | phosphatase activity of PP2A (PP2A) | tumor growth in vivo (4T1 tumors) | hematopoiesis of MDS BMNCs (CFU-GM, BFU-E colonies) (MDS BMNCs) | SIGLEC3 mRNA and protein expression (SIGLEC3) | phosphodiesterase (enzymatic) activity of PDE5 [1] | effect on hematopoiesis (colony formation) [2] | IC50 (PBMC; read-out: IC50) | IC50 (Bone marrow; Bone marrow (bone marrow mononuclear cells, BMMC), read-out: IC50) | expression of CD33 on PBMC (SIGLEC3; 20 μM)
COc1ccc(-c2oc3c(CC=C(C)C)c(O[C@@H]4O[C@H](CO)[C@@H](O)[C@H](O)[C@H]4O)cc(O)c3c(=O)c2O[C@@H]2O[C@@H](C)[C@H](O)[C@@H](O)[C@H]2O)cc1 [ICA, Icariin] | decreased | > 100 µM | > 100 µM | up-regulate the phosphatase activity of PP2A in vitro | inhibit tumor growth in vivo | increase the hematopoiesis of MDS BMNCs | down-regulating SIGLEC3 at both the mRNA and protein expression levels | block the phosphodiesterase activity of PDE5; also recorded: inhibit the enzymatic activity of PDE5 | do not affect hematopoiesis |  |  | 
COc1ccc(-c2oc3c(CCC(C)(C)O)c(O)cc(O)c3c(=O)c2O)cc1 [ICT, 3,5,7-trihydroxy-4′-methoxy-8-(3-hydroxy-3-methylbutyl)-flavone] | decreased |  |  | up-regulate the phosphatase activity of PP2A in vitro | inhibit tumor growth in vivo | increase the hematopoiesis of MDS BMNCs | down-regulating SIGLEC3 at both the mRNA and protein expression levels | block the phosphodiesterase activity of PDE5; also recorded: inhibit the enzymatic activity of PDE5 | do not affect hematopoiesis | > 100 µM | > 100 µM | down-regulate the expression of CD33 on PBMC
